Target: Bcl-xL (Homo sapiens, UniProt Q07817)
Test: Bak/Bcl-XL competitive fluorescence polarization binding assay with fluorescein labeled Bid peptide
Conditions: displacement of fluorescein labeled Bid peptide from Bcl-xL; mP values only in drawings
From the text: The affinity of each molecule within the library of potential Bak mimetics can be assayed with respect to binding to Bcl-xL receptor. The binding affinity can be determined, for example, by a competitive binding assay based on fluorescence polarization. See Wang, et al., Proc. Natl. Acad. Sci., 2000, 97:7124-7129.
Competitive fluorescence polarization-based assays require a dye-labeled peptide to determine if the small molecule has affinity for the target protein. These assays can be carried out with a fluorescein labeled Bid peptide. […] When a solution of fluorescein labeled Bid peptide is irradiated with polarized light, the peptide rotates quickly and the emitted light is depolarized. Upon complexation with the target Bcl-xL protein, the larger complex rotates slowly and the emitted light remains polarized.
When the fluorescein-labeled Bid/Bcl-xL complex is exposed to small molecules with binding affinity for Bcl-xL, the Bid peptide is displaced and the amount of depolarized light emitted increases. This polarization amount (mP) provides an estimate of the affinity for the small molecules for Bcl-xL
See Kutzki, et al., J. Am. Chem. Soc., 2002, 124:11838-11839. This compound acts as a positive control.
These compounds represent the strongest binders for Bcl-xL of the Bak mimetic library, with structure and mP values shown below.

Sequence of Bcl-xL (Q07817 whole entry, species assumed): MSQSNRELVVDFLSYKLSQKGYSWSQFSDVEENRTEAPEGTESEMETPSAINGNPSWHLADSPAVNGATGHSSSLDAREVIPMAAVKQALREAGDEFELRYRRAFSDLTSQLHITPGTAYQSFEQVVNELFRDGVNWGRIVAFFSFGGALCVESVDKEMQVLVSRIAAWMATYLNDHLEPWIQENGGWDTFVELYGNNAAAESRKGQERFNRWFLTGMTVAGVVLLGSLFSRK

Compound | activity (mP value) in binding to Bcl-xL
CC(C)Cc1cc(-c2nc(C(C)C)co2)nnc1-c1nc(C(C)C)co1 [Compound 4.53, 2,2′-(4-isobutylpyridazine-3,6-diyl)bis(4-isopropyloxazole)] | particularly active
CC(C)Cc1cc(C(=O)N2CCC[C@@H](OCc3ccccc3)C2)nnc1-c1nc(C(C)C)co1 [Compound 4.73, (R)-(3-(Benzyloxy)piperidin-1-yl)(5-isobutyl-6-(4-isopropyloxazol-2-yl)pyridazin-3-yl)methanone] | particularly active
